Data: US8686059B2, “Base and radical generator, composition using same and method for curing same” (Three Bond Co., Ltd., priority 2009, dated 2014)

What was measured:
[1] = Confirmation of photobase generation: pH of aqueous solution before and after 365-nm irradiation; format: physicochemical; conditions: 1.00 g/L aqueous solution
Protocol: An aqueous solution having a concentration of 1.00 g/L was prepared from the aminimide compound A and pure water, and 50 ml of this was put into a transparent glass-made sample bottle having an inner diameter of 38 mm and a height of 58 mm, and with stirring with a stirrer while sealed up, the pH of the aqueous solution was measured with a pH meter, Horiba Seisakusho's D54. Further kept sealed up, the sample bottle was irradiated with 365-nm active energy rays on the side thereof at a lighting intensity of 100 mW/cm^2, using a spot UV irradiator, Hamamatsu Photonics' LC8, and the pH of the solution was measured after irradiation for specified seconds. The pH before irradiation with active energy rays was 6.28; and the pH after irradiation with active energy rays for 20 seconds was 9.78; the pH after irradiation for 30 seconds was 9.90; and the pH after irradiation for 50 seconds was 10.01.

| SMILES | melting point | pH before irradiation with active energy rays [1] | pH after irradiation with active energy rays for 20 seconds ([1]; 365 nm, 100 mW/cm^2, 20 seconds) | pH after irradiation for 30 seconds ([1]; 365 nm, 100 mW/cm^2, 30 seconds) | pH after irradiation for 50 seconds ([1]; 365 nm, 100 mW/cm^2, 50 seconds) |
| --- | --- | --- | --- | --- | --- |
| COc1ccc(C(=O)C(=O)[N-][N+](C)(C)CC(C)O)cc1 (stereo not drawn) [Aminimide Compound B] | 102 to 103 °C (dec.) | – | – | – | – |
| CC(=O)OC(C)C[N+](C)(C)[N-]C(=O)C(=O)c1ccccc1 (stereo not drawn) [Aminimide Compound D] | 100 to 101 °C (dec.) | – | – | – | – |
| CC(O)C[N+](C)(C)[N-]C(=O)C(=O)c1ccccc1 (stereo not drawn) [Aminimide Compound A] | – | 6.28 | 9.78 | 9.90 | 10.01 |
